Results taken from patent US20260258003A1, “SLACK-ACTIVATING COMPOUNDS AND THEIR MEDICAL USE” (Johann Wolfgang Goethe-Universität Frankfurt am Main, priority 2023, published 2026).
pEC50: −log10 of the molar value. Read-outs that look alike come from different tables or passages of the source.

What was measured:
[1] = target: T1, human Slack (Homo sapiens, UniProt Q5JUK3); assay: FluxOR potassium ion channel assay in HEK-Slack cells; format: cell-based; conditions: Na+ free buffer with 2 mM Ca2+, 2 mM Mg2+, 0.03% DMSO; for Emax: read-out: FluxOR assay EMAX (% relative to Loxapine)
T1 construct: host or cells: HEK293
T1 sequence (Q5JUK3 1-1230): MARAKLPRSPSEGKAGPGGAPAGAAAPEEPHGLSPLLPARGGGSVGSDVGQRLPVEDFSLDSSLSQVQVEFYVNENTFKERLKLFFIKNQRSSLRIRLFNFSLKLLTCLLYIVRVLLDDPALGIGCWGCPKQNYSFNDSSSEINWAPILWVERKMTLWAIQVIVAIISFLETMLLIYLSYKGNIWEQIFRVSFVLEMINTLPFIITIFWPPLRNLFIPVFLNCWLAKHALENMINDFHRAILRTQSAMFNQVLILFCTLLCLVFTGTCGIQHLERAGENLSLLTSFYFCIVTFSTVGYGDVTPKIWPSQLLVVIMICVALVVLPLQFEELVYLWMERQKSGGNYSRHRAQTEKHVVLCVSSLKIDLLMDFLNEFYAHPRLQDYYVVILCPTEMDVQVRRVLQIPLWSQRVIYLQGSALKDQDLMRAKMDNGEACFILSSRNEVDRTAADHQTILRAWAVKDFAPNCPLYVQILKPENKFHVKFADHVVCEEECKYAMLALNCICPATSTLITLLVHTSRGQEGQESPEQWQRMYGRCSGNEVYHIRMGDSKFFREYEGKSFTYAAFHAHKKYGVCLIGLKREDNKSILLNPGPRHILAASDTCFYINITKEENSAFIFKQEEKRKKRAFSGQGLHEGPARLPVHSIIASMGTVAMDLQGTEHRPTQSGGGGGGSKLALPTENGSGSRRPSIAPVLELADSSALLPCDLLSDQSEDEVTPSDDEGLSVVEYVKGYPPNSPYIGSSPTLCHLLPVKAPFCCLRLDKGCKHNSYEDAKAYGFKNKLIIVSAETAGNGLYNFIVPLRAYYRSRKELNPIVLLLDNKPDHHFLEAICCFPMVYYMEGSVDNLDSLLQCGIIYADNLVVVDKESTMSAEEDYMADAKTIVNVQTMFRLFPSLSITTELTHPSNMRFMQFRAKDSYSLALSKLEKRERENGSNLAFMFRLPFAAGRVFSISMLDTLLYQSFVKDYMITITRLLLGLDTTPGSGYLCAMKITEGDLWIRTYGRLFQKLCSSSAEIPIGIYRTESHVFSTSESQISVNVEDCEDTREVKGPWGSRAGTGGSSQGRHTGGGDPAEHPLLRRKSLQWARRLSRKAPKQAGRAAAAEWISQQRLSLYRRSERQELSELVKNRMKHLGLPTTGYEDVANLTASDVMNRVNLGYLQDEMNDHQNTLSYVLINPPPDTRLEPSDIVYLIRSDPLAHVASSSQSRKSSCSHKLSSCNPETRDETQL
Method: For that purpose, cultured HEK293 cells stably expressing human Slack (herein referred to as HEK-Slack cells) were incubated with compounds in a Na^+ free buffer to prevent compound-independent Slack activation by monovalent cations^7,19.
In detail, in these experiments, the Slack-activating efficacy and potency of the novel compounds was determined using a commercial FluxOR™ Potassium Ion Channel Assay (Invitrogen). HEK293 cells stably expressing human Slack (herein referred to as HEK-Slack cells) were plated at a density of 50,000 cells per well of a poly-D-lysine coated (75 μg/mL, Sigma Aldrich) 96-well, black-walled microplate with clear bottom (Greiner Bio-One) in DMEM containing 10% FBS and 1% penicillin/streptomycin 24 hours prior to assaying.
On the experiment day, cells were loaded with FluxOR™ dye according to the manufacturer's protocol. A Na^+-free assay buffer containing 140 mM choline chloride, 5 mM KCl, 2 mM CaCl2), 2 mM MgSO4, 10 mM HEPES, 5.55 mM glucose, adjusted to pH 7.4 with KOH, was used. To reduce background fluorescence all assay components were complemented by 10% BackDrop™ Background Suppressor (Invitrogen). […]
After washing steps, cells were incubated with compounds for 30 min at 37° C. All compounds were prepared as a 33.3 mM DMSO stock and diluted at the experimental day to a final concentration of 100, 50, 25, 12.5, 6.25, and 3.125 μM in assay buffer containing […] DMSO. […] After stimulation with Tl2SO4 solution, the fluorescence was measured over 100 s (excitation 485 nm, emission 525 nm) using an Infinite M200 Microplate Reader (Tecan). Assays run in triplicate and the ratio to baseline fluorescence was calculated for all time points. Dose-response curves comprising six concentrations were performed in triplets using fluorescence/fluorescenceBaseline ratios at the 100th second.

[2] = test system: 44 targets; assay: SafetyScreen44 panel (Eurofins), whole panel; format: binding, mostly human; conditions: 10 μM, out of 44 targets
Method: (§1) Compound enzyme inhibition effect was calculated as a % inhibition of control enzyme activity. […] Measurements were performed in duplicate.

[3] = target: T2, human ether-à-go-go (hERG) potassium channel (Homo sapiens, UniProt Q12809); assay: SafetyScreen44 binding; conditions: 10 μM
T2 construct: Eurofins SafetyScreen44
Method: as §1

[4] = target: T3, serotonin 5-HT2A receptor (Homo sapiens, UniProt P28223); assay: SafetyScreen44 binding; conditions: substantial = higher than 50%; for binding inhibition, 5-HT2A: 10 μM
T3 construct: Eurofins SafetyScreen44
Method: as §1

[5] = test system: motor function of mice; assay: Vertical pole test (motor function); format: in vivo; conditions: for motor function in the vertical pole test: 3-30 mg i.p., after rotarod test
Method: Further studies were conducted to assess the in vivo efficacy of Compound 6 and Compound 10 in mice. In detail, experiments were performed in 8 to 16 weeks old C57BL/6N mice (Charles River, Sulzfeld, Germany) and animals with a genetic deletion of Slack (Slack^−/− mice^27) of either sex. Animals were housed on a 12 h light/dark cycle with access to food and water ad libitum. All experiments adhered to the guidelines of the International Association for the Study of Pain and to the ARRIVE (Animal Research: Reporting on In Vivo Experiments) guidelines, and were approved by and conducted in accordance with the regulations of the local Animal Welfare authorities (Regierungspräsidium Darmstadt, Germany). All behavioral studies were conducted during the light cycle of the day at room temperature (20-24° C.) by an observer blinded for the treatment of the animals and/or their genotype.
Accelerating rotarod and vertical pole test were performed as follows: Mice were placed on a rotarod treadmill (Ugo Basile, Italy) with increasing speed (4-40 rpm over 300 s), and were trained for 4-5 consecutive days. Only mice reaching the 300 seconds without falling off were included in the experiment. On the testing day, compounds were i.p. administered in a vehicle composed of 0.9% saline (Sigma-Aldrich) containing 10% 2-hydroxypropyl-β-cyclodextrine (ITW Reagents) and after 15 min the latency to fall off the accelerating rotarod was measured. Immediately thereafter, mice were placed head-upward on the top of a vertical pole with a rough surface (diameter 1 cm, height 40 cm) and the time until animals reached the ground was recorded (cut-off time 20 s). Means out of three trials for each time point were calculated for further analysis.

[6] = mean with 95% confidence interval, read-out: FluxOR assay EC50
[7] = mean with 95% confidence interval

T2 sequence (Q12809 whole entry): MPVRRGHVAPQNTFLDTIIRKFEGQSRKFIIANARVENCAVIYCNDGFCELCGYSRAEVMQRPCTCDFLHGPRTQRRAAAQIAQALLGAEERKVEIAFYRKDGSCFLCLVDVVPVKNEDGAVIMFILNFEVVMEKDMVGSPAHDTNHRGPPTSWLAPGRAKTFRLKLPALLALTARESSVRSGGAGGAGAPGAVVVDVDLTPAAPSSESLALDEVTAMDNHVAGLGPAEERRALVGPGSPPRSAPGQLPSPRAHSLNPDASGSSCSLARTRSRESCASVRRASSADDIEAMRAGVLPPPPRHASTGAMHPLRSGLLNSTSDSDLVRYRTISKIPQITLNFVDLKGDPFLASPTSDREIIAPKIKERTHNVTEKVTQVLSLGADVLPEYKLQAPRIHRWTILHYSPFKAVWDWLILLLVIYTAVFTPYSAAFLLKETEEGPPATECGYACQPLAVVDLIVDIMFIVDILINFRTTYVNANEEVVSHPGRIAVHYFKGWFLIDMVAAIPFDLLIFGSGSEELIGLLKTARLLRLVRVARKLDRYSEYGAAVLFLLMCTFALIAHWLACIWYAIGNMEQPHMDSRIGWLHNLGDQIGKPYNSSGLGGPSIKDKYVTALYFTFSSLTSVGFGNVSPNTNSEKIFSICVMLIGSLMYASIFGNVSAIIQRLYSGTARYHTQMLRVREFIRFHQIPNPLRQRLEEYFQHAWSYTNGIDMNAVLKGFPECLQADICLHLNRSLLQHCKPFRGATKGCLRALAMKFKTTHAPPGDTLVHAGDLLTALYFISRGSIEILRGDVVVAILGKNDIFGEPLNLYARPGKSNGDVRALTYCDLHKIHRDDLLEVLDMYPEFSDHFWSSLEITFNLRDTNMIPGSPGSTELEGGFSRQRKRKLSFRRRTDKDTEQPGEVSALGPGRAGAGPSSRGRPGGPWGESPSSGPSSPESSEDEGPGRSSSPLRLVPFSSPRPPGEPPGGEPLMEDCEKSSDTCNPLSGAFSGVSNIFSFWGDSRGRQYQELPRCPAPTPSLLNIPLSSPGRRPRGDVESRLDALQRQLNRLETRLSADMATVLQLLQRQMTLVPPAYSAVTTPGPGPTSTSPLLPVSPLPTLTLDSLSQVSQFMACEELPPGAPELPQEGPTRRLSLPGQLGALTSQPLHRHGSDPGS
T3 sequence (P28223 whole entry): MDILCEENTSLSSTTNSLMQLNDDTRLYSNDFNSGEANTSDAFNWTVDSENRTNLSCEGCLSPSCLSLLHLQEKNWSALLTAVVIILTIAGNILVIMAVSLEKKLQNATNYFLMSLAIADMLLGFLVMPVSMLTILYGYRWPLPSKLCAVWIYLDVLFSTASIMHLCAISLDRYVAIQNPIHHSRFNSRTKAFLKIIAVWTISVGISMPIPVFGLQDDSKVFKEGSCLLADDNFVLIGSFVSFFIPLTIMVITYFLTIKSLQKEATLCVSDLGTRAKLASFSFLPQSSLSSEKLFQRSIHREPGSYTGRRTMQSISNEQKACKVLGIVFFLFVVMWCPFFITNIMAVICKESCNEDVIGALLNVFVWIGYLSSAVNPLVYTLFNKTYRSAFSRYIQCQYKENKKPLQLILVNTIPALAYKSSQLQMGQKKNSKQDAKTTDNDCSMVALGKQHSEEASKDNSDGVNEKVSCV

pEC50 [1, 6] | Emax [1, 7] [%] | pEC50 ([1]; first preliminary experiments, read-out: EC50 value in the first preliminary experiments) | SMILES | number of targets with substantial binding inhibition (higher than 50%) [2] | binding to hERG potassium channel in the off-target screen [3] | binding inhibition, 5-HT2A [4] | motor function in the vertical pole test [5] | inhibition at 10 µM [4] [%] | ability to perform in the vertical pole test ([5]; dose ≥0.39 mg/kg i.p.)
5.20 | 114 |  | CN1CCN(C2=Nc3ccccc3Oc3ccc(C(F)(F)F)cc32)CC1 [Compound 2, 11-(4-Methylpiperazin-1-yl)-2-(trifluoromethyl)dibenzo[b,f][1,4]oxazepine] |  |  |  |  |  | 
5.49 | 63.1 |  | CN1CCCN(C2=Nc3ccccc3Oc3ccc(C(F)(F)F)cc32)CC1 [Compound 3, 11-(4-Methyl-1,4-diazepan-1-yl)-2-(trifluoromethyl)dibenzo[b,f][1,4]oxazepine] |  |  |  |  |  | 
4.38 | 199 |  | CN1CCN(C2=Nc3cc(F)ccc3Oc3ccc(C(F)(F)F)cc32)CC1 [Compound 4, 8-Fluoro-11-(4-methylpiperazin-1-yl)-2-(trifluoromethyl)dibenzo[b,f][1,4]oxazepine] |  |  |  |  |  | 
4.59 | 223 |  | OCCN1CCN(C2=Nc3ccccc3Oc3ccc(Cl)cc32)CC1 [Compound 5, 2-(4-(2-Chlorodibenzo[b,f][1,4]oxazepin-11-yl)piperazin-1-yl) ethan-1-ol] |  |  |  |  |  | 
4.52 | 87.4 |  | OCCOCCN1CCN(C2=Nc3ccccc3Sc3ccc(Cl)cc32)CC1 [Compound 7, 2-(2-(4-(2-Chlorodibenzo[b,f][1,4]thiazepin-11-yl)piperazin-1-yl)ethoxy) ethan-1-ol] |  |  |  |  |  | 
4.20 | 177 |  | O=C(O)COCCN1CCN(C2=Nc3ccccc3Oc3ccc(C(F)(F)F)cc32)CC1 [Compound 8, 2-(2-(4-(2-(Trifluoromethyl)dibenzo[b,f][1,4]oxazepin-11-yl)piperazin-1-yl)ethoxy) acetic acid] |  |  |  |  |  | 
4.29 | 186 |  | O=C(O)COCCN1CCCN(C2=Nc3ccccc3Oc3ccc(C(F)(F)F)cc32)CC1 [Compound 9, 2-(2-(4-(2-(Trifluoromethyl)dibenzo[b,f][1,4]oxazepin-11-yl)-1,4-diazepan-1-yl)ethoxy) acetic acid] |  |  |  |  |  | 
4.66 | 120 |  | O=c1nc(CN2CCN(C3=Nc4ccccc4Oc4ccc(Cl)cc43)CC2)[nH][nH]1 [Compound 10, 5-((4-(2-Chlorodibenzo[b,f][1,4]oxazepin-11-yl)piperazin-1-yl)methyl)-1,2-dihydro-3H-1,2,4-triazol-3-one] | 5 | did not measurably bind | substantial binding inhibition | did neither impair the motor function |  | 
4.68 | 100 | 4.63 | CN1CCN(C2=Nc3ccccc3Oc3ccc(Cl)cc32)CC1 [Loxapine, 2-chloro-11-(4-methylpiperazin-1-yl)dibenzo[b,f][1,4]oxazepine, reference compound] | 17 | did not measurably bind |  |  | > 50 | significantly reduced the ability of the mice to perform

SMILES | pEC50 [1, 6] | Emax [1, 7] [%] | pEC50 ([1]; first preliminary experiments, read-out: EC50 value in the first preliminary experiments) | number of targets with substantial binding inhibition (higher than 50%) [2] | binding to hERG potassium channel in the off-target screen [3] | binding inhibition, 5-HT2A [4] | motor function in the vertical pole test [5] | inhibition at 10 µM [4] [%] | ability to perform in the vertical pole test ([5]; dose ≥0.39 mg/kg i.p.)
O=C(O)COCCN1CCN(C2=Nc3ccccc3Oc3ccc(Cl)cc32)CC1 [Compound 6, 2-(2-(4-(2-Chlorodibenzo[b,f][1,4]oxazepin-11-yl)piperazin-1-yl)ethoxy) acetic acid] | 4.52 | 96.2 |  | 8 | did not measurably bind | substantial binding | did neither impair the motor function |  | 
